Read-outs that look alike come from different tables or passages of the source.
Key:
[1] = test system: HCV sub-genomic replicon (1377/NS3-3') in HuH-7 hepatoma cells (GS4.3); assay: Quantitation by ELISA of NPTII in the HCV sub-genomic replicon, GS4.3; assay type: cell-based, hepatitis C virus (HCV); settings: Hepatitis C virus, Huh-7; GS4.3 cells, 72 h incubation, NPTII ELISA; read-out: Replicon EC50
Experimental: The HCV sub-genomic replicon (1377/NS3-3′, accession No. AJ242652), stably maintained in HuH-7 hepatoma cells, was created by Lohmann et al. Science 285: 110-113 (1999). The replicon-containing cell culture, designated GS4.3, was obtained from Dr. Christoph Seeger of the Institute for Cancer Research, Fox Chase Cancer Center, Philadelphia, Pa.
GS4.3 cells were maintained at 37° C., 5% CO2, in DMEM (Gibco 11965-092) supplemented with L-glutamine 200 mM (100×) (Gibco25030-081), non-essential amino acids (NEAA) (Biowhittaker 13-114E), heat-inactivated (HI) Fetal Bovine Serum (FBS) (Hyclone SH3007.03) and 750 μg/mL geneticin (G418)(Gibco 10131-035). Cells were sub-divided 1:3 or 4 every 2-3 days.
24 h prior to the assay, GS4.3 cells were collected, counted, and plated in 96-well plates (Costar 3585) at 7500 cells/well in 100 μL standard maintenance medium (above) and incubated in the conditions above. To initiate the assay, culture medium was removed, cells were washed once with PBS (Gibco 10010-023) and 90 μl Assay Medium (DMEM, L-glutamine, NEAA, 10% HI FBS, no G418) was added. Inhibitors were made as a 10× stock in Assay Medium, (3-fold dilutions from 10 μM to 56 pM final concentration, final DMSO concentration 1%), 10 μL were added to duplicate wells, plates were rocked to mix, and incubated as above for 72 h.
An NPTII Elisa kit was obtained from AGDIA, Inc. (Compound direct ELISA test system for Neomycin Phosphotransferase II, PSP 73000/4800). Manufacturer's instructions were followed, with some modifications. 10×PEB-1 lysis buffer was made up to include 500 μM PMSF (Sigma P7626, 50 mM stock in isopropanol). After 72 h incubation, cells were washed once with PBS and 150 μL PEB-1 with PMSF was added per well. Plates were agitated vigorously for 15 minutes, room temperature, then frozen at −70° C. Plates were thawed, lysates were mixed thoroughly, and 100 μl were applied to an NPTII Elisa plate. A standard curve was made. Lysate from DMSO-treated control cells was pooled, serially diluted with PEB-1 with PMSF, and applied to duplicate wells of the ELISA plate, in a range of initial lysate amount of 150 μL-2.5 μL. In addition, 100 μL buffer alone was applied in duplicate as a blank. Plates were sealed and gently agitated at room temperature for 2 h. Following capture incubation, the plates were washed 5×300 μL with PBS-T (0.5% Tween-20, PBS-T was supplied in the ELISA kit). For detection, a 1× dilution of enzyme conjugate diluent MRS-2 (5×) was made in PBS-T, into which 1:100 dilutions of enzyme conjugates A and B were added, as per instructions. Plates were resealed, and incubated with agitation, covered, room temperature, for 2 h. The washing was then repeated and 100 μL of room temperature TMB substrate was added. After approximately 30 minutes incubation (room temperature, agitation, covered), the reaction was stopped with 50 μL 3M sulfuric acid. Plates were read at 450 nm on a Molecular Devices Versamax plate reader.
Inhibitor effect was expressed as a percentage of DMSO-treated control signal, and inhibition curves were calculated using a 4-parameter equation: y=A+((B−A)/(1+((C/x)^D))), where C is half-maximal activity or EC50.

[2] = molecular target: T1, NS3/NS4A-2 (full-length HCV NS3 protease complexed with NS4A-2) (Hepatitis C virus genotype 1a, UniProt P27958); assay: NS3 inhibition assay (NS3-NS4 protease assay); assay type: biochemical
T1 construct: Recombinant E. coli or Baculovirus full-length NS3; host or cells: E. coli or baculovirus (insect cells)
Experimental: Recombinant E. coli or Baculovirus full-length NS3 was diluted to 3.33 μM with assay buffer and transferred material to an eppendorf tube and place in water bath in 4° C. refrigerator. The appropriate amount of NS4A-2 to 8.3 mM in assay buffer was added to equal the volume of NS3 in step 2.1.1 (conversion factor −3.8 mg/272 μL assay buffer). The material was transferred to an eppendorf tube and place in water bath in 4° C. refrigerator.
After equilibration to 4° C., equal volumes of NS3 and NS4A-2 solutions were combined in an eppendorf tube, mix gently with a manual pipettor, and incubate mixture for 15 minutes in the 4° C. water bath. Final concentrations in the mixture are 1.67 μM NS3, 4.15 mM NS4A-2 (2485-fold molar excess NS4A-2).
After 15 minutes at 4° C., the NS3/NS4A-2 eppendorf tube was removed and place it in a room temperature water bath for 10 minutes. NS3/NS4A-2 was aliquoted at appropriate volumes and store at −80° C. (E. coli NS3 run at 2 nM in assay, aliquot at 25 μL. BV NS3 run at 3 nM in assay, aliquot at 30 μL).
Sample compounds were dissolved to 10 mM in DMSO then diluted to 2.5 mM (1:4) in DMSO. Typically, compounds were added to an assay plate at 2.5 mM concentration, yielding upon dilution a starting concentration of 50 microM in the assay inhibition curve. Compounds were serial diluted in assay buffer to provide test solutions at lower concentrations.
The E. coli. NS3/NS4A-2 was diluted to 4 nM NS3 (1:417.5 of 1.67 μM stock−18 μL1.67 μM stock+7497 μL assay buffer). The BV NS3/NS4A-2 was diluted to 6 nM NS3 (1:278.3 of 1.67 μM stock−24 μL1.67 μM stock+6655 μL assay buffer). Using the manual multichannel pipettor, careful not to introduce bubbles into the plate, add 50 μL assay buffer to wells A01-H01 of a black Costar 96-well polypropylene storage plate.
Using the manual multichannel pipettor, careful not to introduce bubbles into the plate, add 50 μL of diluted NS3/NS4A-2 from step 2.2.6 to wells A02-H12 of plate in step 2.2.7. Using the manual multichannel pipettor, careful not to introduce bubbles into the plate, transfer 25 μL of the wells in drug dilution plate in step 2.2.5 to corresponding wells in assay plate in step 2.2.8. Change tips on multichannel pipettor for each row of compounds transferred. Using the manual multichannel pipettor, careful not to introduce bubbles into the plate, mix the wells from the assay plate in step 2.2.9 by aspirating and dispensing 35 μL of the 75 μL in each well five times. Change tips on multichannel pipettor for each row of wells mixed. Cover plate with a polystyrene plate lid and pre-incubate the plate from step 2.2.10 containing NS3 protease and sample compounds 10 minutes at room temperature. While plate from step 2.2.11 is pre-incubating, dilute RETS1 substrate in a 15 mL polypropylene centrifuge tube. Dilute RETS1 substrate to 8 μM (1:80.75 of 646 μM stock−65 μL 646 μM stock+5184 μL assay buffer).
After the plate in step is done pre-incubating, and using the manual multichannel, add 25 μL of substrate to all wells on the plate. Quickly mix the plate as in step 2.2.10, mixing 65 μL of the 100 μL in the wells.
Read the plate in kinetic mode on the Molecular Devices SpectraMax Gemini XS plate reader. Reader settings: Read time: 30 minutes, Interval: 36 seconds, Reads: 51, Excitation λ: 335 nm, Emission λ: 495 nm, cutoff: 475 nm, Automix: off, Calibrate: once, PMT: high, Reads/well: 6, Vmax pts: 21 or 28/51 depending on length of linearity of reaction
IC50s are determined using a four parameter curve fit equation, and converted to Ki's using the following Km's: • Full-length E. coli NS3−2.03 μM • Full-length BV NS3−1.74 μM • where Ki=IC50/(1+[S]/Km)) • Quantitation by ELISA of the Selectable Marker Protein, Neomycin Phosphotransferase II (NPTII) in the HCV Sub-Genomic Replicon, GS4.3

[3] = recombinant full-length NS3/NS4A-2, RETS1 substrate, kinetic fluorescence read, read-out: NS3-NS4 IC50

T1 sequence (P27958 1027-1657, one chain of several): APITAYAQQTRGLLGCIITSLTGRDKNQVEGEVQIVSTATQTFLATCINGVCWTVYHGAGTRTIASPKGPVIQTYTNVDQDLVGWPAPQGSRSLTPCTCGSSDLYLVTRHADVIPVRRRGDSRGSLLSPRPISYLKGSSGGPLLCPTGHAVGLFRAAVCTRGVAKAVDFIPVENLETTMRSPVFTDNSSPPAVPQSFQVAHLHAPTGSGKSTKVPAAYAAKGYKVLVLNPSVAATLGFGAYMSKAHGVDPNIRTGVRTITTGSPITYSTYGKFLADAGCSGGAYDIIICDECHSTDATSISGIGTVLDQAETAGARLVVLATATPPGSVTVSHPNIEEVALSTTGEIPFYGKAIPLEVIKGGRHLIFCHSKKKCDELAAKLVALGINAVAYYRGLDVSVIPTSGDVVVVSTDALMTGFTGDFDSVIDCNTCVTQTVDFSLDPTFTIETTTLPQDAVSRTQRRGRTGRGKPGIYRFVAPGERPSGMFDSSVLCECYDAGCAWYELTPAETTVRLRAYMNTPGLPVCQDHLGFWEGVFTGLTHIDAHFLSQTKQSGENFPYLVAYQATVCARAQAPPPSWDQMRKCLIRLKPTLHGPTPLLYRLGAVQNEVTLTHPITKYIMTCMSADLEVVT

Compound	EC50 [1]	IC50 [2, 3]	IC50 [2]
CC[C@@H]1C[C@]1(NC(=O)[C@@H]1C[C@@H](OC(=O)N2Cc3cccc(F)c3C2)CN1C(=O)[C@@H](Nc1cccc(Cl)c1)C(C)C)C(=O)NS(=O)(=O)C1CC1 [Compound 50, [(3R,5S)-1-((S)-2-(3-chlorophenylamino)-3-methylbutanoyl)-5-((1R,2R)-1-(cyclopropylsulfonylcarbamoyl)-2-ethylcyclopropylcarbamoyl)pyrrolidin-3-yl]4-fluoroisoindoline-2-carboxylate]	< 100 nM	< 100 nM	
CC[C@@H]1C[C@]1(NC(=O)[C@@H]1C[C@@H](OC(=O)N2Cc3cccc(F)c3C2)CN1C(=O)[C@@H](Nc1cccc(C#N)c1)C(C)C)C(=O)NS(=O)(=O)C1CC1 [Compound 51, [(3R,5S)-1-((S)-2-(3-cyanophenylamino)-3-methylbutanoyl)-5-((1R,2R)-1-(cyclopropylsulfonylcarbamoyl)-2-ethylcyclopropylcarbamoyl)pyrrolidin-3-yl]4-fluoroisoindoline-2-carboxylate]	100 to 1000 nM	< 100 nM	
C=C[C@@H]1C[C@]1(NC(=O)[C@@H]1Cc2cc(Oc3cccc(Cl)c3)ccc2CN1C(=O)[C@@H](Nc1ccc(F)cc1)C(C)(C)C)C(=O)NS(=O)(=O)C1CC1 [Compound 11, (S)-6-(3-chlorophenoxy)-N-((1R,2S)-1-(cyclopropylsulfonylcarbamoyl)-2-vinylcyclopropyl)-2-((S)-2-(4-fluorophenylamino)-3,3-dimethylbutanoyl)-1,2,3,4-tetrahydroisoquinoline-3-carboxamide]	10000 to 50000 nM	< 100 nM	
C=C[C@@H]1C[C@]1(NC(=O)C1Cc2cc(Oc3cccc(Cl)c3)ccc2CN1C(=O)[C@@H](Nc1cccc(C(C)(C)C)c1)C(C)C)C(=O)NS(=O)(=O)C1CC1 (stereo partly drawn) [Compound 13, 2-((S)-2-(3-tert-butylphenylamino)-3-methylbutanoyl)-6-(3-chlorophenoxy)-N-((1R,2S)-1-(cyclopropylsulfonylcarbamoyl)-2-vinylcyclopropyl)-1,2,3,4-tetrahydroisoquinoline-3-carboxamide]	10000 to 50000 nM	< 100 nM	
CC[C@@H]1C[C@]1(NC(=O)[C@@H]1C[C@@H](OC(=O)N2Cc3cccc(Cl)c3C2)CN1C(=O)[C@@H](Nc1cccc(C(F)(F)F)c1)C(C)(C)C)C(=O)NOC(C)(C)C [Compound 71]	100 to 1000 nM	100 to 1000 nM	
CC[C@@H]1C[C@]1(NC(=O)[C@@H]1C[C@@H](OC(=O)N2Cc3cccc(F)c3C2)CN1C(=O)[C@@H](Nc1cccc(C(C)(C)C#N)c1)C(C)C)C(=O)NS(=O)(=O)C1CC1 [Compound 53, [(3R,5S)-1-((S)-2-(3-(2-cyanopropan-2-yl)phenylamino)-3-methylbutanoyl)-5-((1R,2R)-1-(cyclopropylsulfonylcarbamoyl)-2-ethylcyclopropylcarbamoyl)-pyrrolidin-3-yl]4-fluoroisoindoline-2-carboxylate]	< 100 nM	< 100 nM	
CC[C@@H]1C[C@]1(NC(=O)[C@@H]1C[C@@H](OC(=O)N2Cc3cccc(Cl)c3C2)CN1C(=O)[C@@H](Nc1cccc(C(F)(F)F)c1)C(C)(C)C)C(=O)NS(=O)(=O)C1(C)CC1 [Compound 81]	< 100 nM		< 100 nM
CC[C@@H]1C[C@]1(NC(=O)[C@@H]1C[C@@H](OC(=O)N2Cc3cccc(Cl)c3C2)CN1C(=O)[C@@H](Nc1cccc(C(C)(C)C#N)c1)C(C)C)C(=O)NS(=O)(=O)C1CC1 [Compound 54, [(3R,5S)-1-((S)-2-(3-(2-cyanopropan-2-yl)phenylamino)-3-methylbutanoyl)-5-((1R,2R)-1-(cyclopropylsulfonylcarbamoyl)-2-ethylcyclopropylcarbamoyl)-pyrrolidin-3-yl]4-chloroisoindoline-2-carboxylate]	< 100 nM	< 100 nM	
CC[C@@H]1C[C@]1(NC(=O)[C@@H]1C[C@@H](OC(=O)N2Cc3cccc(Cl)c3C2)CN1C(=O)[C@@H](Nc1cc(F)cc(C(F)(F)F)c1)C(C)(C)C)C(=O)NS(=O)(=O)C1CC1 [Compound 77]	< 100 nM		
[(3R,5S)-5-(((1R,2R)-1-(Cyclopropylsulfonylcarbamoyl)-2-ethylcyclopropyl)carbamoyl)-1-((S)-2-(5-isopropylthiazol-2-ylamino)-3,3-dimethylbutanoyl)pyrrolidin-3-yl]4-chloroisoindoline-2-carboxylate [Compound 65]		< 100 nM	
CC[C@@H]1C[C@]1(NC(=O)[C@@H]1C[C@@H](OC(=O)N2Cc3cccc(Cl)c3C2)CN1C(=O)[C@@H](Nc1cc(F)cc(C(F)(F)F)c1)C(C)(C)C)C(=O)NS(=O)(=O)C1CC1 [Compound 73, (3R,5S)-5-((1R,2R)-1-(cyclopropylsulfonylcarbamoyl)-2-ethylcyclopropylcarbamoyl)-1-((S)-2-(3-fluoro-5-(trifluoromethyl)phenylamino)-3,3-dimethylbutanoyl)pyrrolidin-3-yl 4-chloroisoindoline-2-carboxylate]		< 100 nM	

Source: patent publication US7932277B2, “Peptide inhibitors of hepatitis C virus replication” (InterMune, Inc., priority 2007, dated 2011)
